{
  "source": "patent US9750784B2",
  "about": "(priority 2013, dated 2017)",
  "key": {"Cartilage penetration": {"experiment": "Cartilage penetration", "type": "in vitro ADME"}, "[1]": {"experiment": "In vitro microdialysis in bovine synovial fluid", "type": "in vitro ADME", "settings": "3 mg per ml, 6 kDa membrane"}, "[2]": {"target": "T1, cathepsin D isolated from the human liver (Homo sapiens, UniProt P07339)", "T1 construct": "cathepsin D isolated from the human liver (Sigma-Aldrich); purchased Sigma-Aldrich; host or cells: human liver (tissue-derived)", "T1 sequence (P07339 65-161 limits assumed)": "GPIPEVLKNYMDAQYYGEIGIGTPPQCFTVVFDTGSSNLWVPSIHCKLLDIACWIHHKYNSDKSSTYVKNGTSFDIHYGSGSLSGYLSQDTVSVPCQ", "T1 sequence (P07339 169-412 limits assumed)": "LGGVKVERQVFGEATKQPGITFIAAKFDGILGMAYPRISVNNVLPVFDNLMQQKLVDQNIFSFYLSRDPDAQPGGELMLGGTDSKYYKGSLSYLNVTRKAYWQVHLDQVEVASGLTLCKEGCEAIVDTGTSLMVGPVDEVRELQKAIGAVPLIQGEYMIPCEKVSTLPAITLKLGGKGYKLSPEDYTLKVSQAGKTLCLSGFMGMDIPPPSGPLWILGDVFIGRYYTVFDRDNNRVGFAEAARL", "experiment": "In-vitro fluorescence assay for identification of cathepsin D inhibitors", "type": "biochemical", "settings": "pH 5.5", "protocol": "In order to identify modulators of cathepsin D activity, a continuous enzymatic test was carried out with a synthetic peptide which carries a fluorescent group (MCA=(7-methoxycoumarin-4-yl)acetyl) which is quenched by energy transfer from a Dpn (2,4 dinitrophenyl) group on the same molecule, in Greiner 384-well nb microtitre plates. Cleavage of the peptidic substrate by cathepsin D causes an increase in the fluorescence intensity. In order to determine the efficacy of substances, the time-dependent increase in the fluorescence intensity in the presence of the substance was compared with the time-dependent increase in fluorescence in the absence of substances. […] The enzyme employed was cathepsin D isolated from the human liver (Sigma-Aldrich) in a final concentration of 1.4 nM. The test was carried out in 100 mM sodium acetate buffer, 1.25% (v/v) of DMSO, 0.25% (w/v) of Chaps, pH 5.5. […] After carrying out a starting-point fluorescence measurement (excitation wavelength 340 nm/emission wavelength 450 nm) using an Envision multilabel reader (Perkin Elmer), the reaction was incubated at room temperature for 60 min. The amount of peptide fragment cleaved off during the reaction time was subsequently measured by determination of the increase in the fluorescence intensity at 450 nm (excitation wavelength 340 nm)."}, "[3]": {"experiment": "Stability of pepstatin in bovine synovial fluid", "type": "in vitro ADME", "settings": "pooled bovine synovial fluid, 37° C., initial 1 μM"}, "[4]": {"experiment": "Pharmacokinetic data after intravenous and oral administration", "type": "in vivo, Wistar rats", "settings": "Wistar rat", "protocol": "The test substances were dissolved in DMSO/PEG200/water (2/60/38 v/v) with a final concentration of 0.8 mg/ml, and a dose of 0.2 mg/kg i.v. and 0.5 mg/kg orally was administered. […] The blood samples were collected in centrifuge tubes containing Li heparin and centrifuged at about 10,000 g at 4° C. for 3 min. The plasma obtained therefrom was immediately frozen at −20° C. and stored until analysis. The plasma concentrations were determined by means of a standard LC-MS/MS method. The pharmacokinetic parameters (Clp, Vss, T1/2, F) were determined via an NCA analysis."}, "[5]": {"experiment": "Toxicity and genotoxicity"}, "[6]": {"experiment": "Pharmacokinetic data after intraarticular injection", "type": "in vivo, Lister hooded rats", "settings": "for Average joint diameter [mm]: rat knee, about 700 μg suspension intraarticular", "protocol": "For this study (KK-Rat-12-003), 14 male Lister hooded rats were used. All rats were given a single intraarticular injection into both knee joints at time “0”. An injection consisted of 30 μl in which about 700 μg of compound were homogeneously suspended (suspension=compound in 0.5% Methocel K4M with 0.25% Tween20 in PBS). The suspension was administered via a 25 G cannula. […] At each point in time indicated in Table 2, animals were sacrificed, the knee joints were prepared (removal of skin and muscle tissue) and frozen for further processing.\nThe deep-frozen joints were briefly thawed, comminuted as well as possible using bone scissors, and 4 times the volume of 80% ethanol was subsequently added. The mixture was subsequently homogenised using an Ultraturrax, the extract was shaken at RT for 20 min and then stored at −20° C. for at least 30 min. The mixture was then centrifuged at 13,000 rpm for 5 min, a 10 μl aliquot of the supernatant was diluted 1:5000 with internal standard solution, transferred into a PCR plate and analysed.\n20 μl of internal standard solution were added to 20 μl of plasma, 100 μl of methanol were added, and the mixture was shaken for 5 min. The extracts were then stored at −20° C. for at least 30 min and subsequently centrifuged at 13,000 rpm for 5 min. 80 μl of the supernatant were transferred into a PCR plate and analysed.\nAll samples were analysed with the aid of a UPLC-MS/MS system."}, "ACLT tMx arthrosis model": {"tested_on": "ACLT tMx arthrosis model", "experiment": "Efficacy in vivo in arthrosis, ACLT tMx model", "parameters": "species or system rats", "settings": "rat ACLT tMx, 1 mg in 30 μl intraarticular, 6 weeks, histological assessment", "protocol": "Rats were selected as experimental animals. After shaving and disinfection, the operation area is opened by means of a medial skin cut with a length of about 1 cm. The knee joint capsule is prepared and the medial patellar ligament is exposed. After opening of the joint capsule, cutting of the medial parapatellar ligaments and lateral displacement of the patella, the anterior cruciate ligament is cut using a curved knife with a blunt end (ACLT=anterior cruciate ligament transection). The anterior and posterior ligaments holding the meniscus in place are subsequently prepared and cut and the meniscus is removed tMx (resection of the medial meniscus). After repositioning of the patella, the joint is finally rinsed with sterile saline solution in order to remove any blood coagulum that may have formed. The patella is repositioned, and the medial patellar ligament is re-fixed by means of continuous suture with sealing of the capsule. The muscles are likewise sutured. The skin is subsequently closed by means of single stitches. The operation duration is about 10 minutes. The postoperative trial duration was 6 weeks. For intraarticular injection, the animals are anaesthetised with 1.5-2% by vol. of isoflurane. […] Two sections in the region of the exposure zone were selected from each animal and assessed by two experienced people using an assessment system. […]"}, "[7]": {"experiment": "In vivo joint microdialysis in guinea pig knee joint", "parameters": "species or system guinea pigs (Dunkin Hartley)", "settings": "1 mg/joint in 50 μl as suspension, microdialysis eluates"}, "[8]": {"tested_on": "cartilage explant cultures", "settings": "pH 5.5, explant cultures (mouse, cow or human); cited from earlier work"}, "[9]": {"tested_on": "carrageenan-induced inflammation of the rat knee joint", "experiment": "Anti-hyperalgesic action in animals (carrageenan injected intraarticularly into rat knee joint, Hargreaves test)", "type": "in vivo", "settings": "intraarticular 30 minutes before CAR", "protocol": "In order to induce an inflammation reaction, a carrageenan solution (CAR, 1%, 50 μl) was injected intraarticularly on one side into a rat knee joint. The uninjected side was used for control purposes. Six animals per group were used. The […] was determined by means of a micrometer screw (medial-lateral on the knee joint), and the thermal hyperalgesia was determined by means of a directed infrared light source by the Hargreaves method (Hargreaves et al. 1988) on the sole of the foot. Since the site of inflammation (knee joint) is different from the site of measurement (sole of the paw), use is made here of the term secondary thermal hyperalgesia, the mechanisms of which is of importance for the discovery of effective analgesics.\nExperimental description of thermal hyperalgesia (Hargreaves test): the experimental animal is placed in a plastic chamber on a quartz sheet. Before testing, the experimental animal is firstly given about 5-15 minutes time to familiarise itself with the environment. […] Light reflected by the paw is recorded as long as the experimental animal sits still. Withdrawal of the paw interrupts this reflection, after which the infrared light source is switched off and the time from switching on to switching off is recorded. […]"}, "[10]": {"settings": "pooled synovial fluid of patients, Powell et al. Table II; cited from earlier work"}},
  "note": "Square brackets hold non-standard residues; d marks the D form. Peptide text beside a SMILES is read from it. * marks the point of attachment. Sta = CC(C)C[C@H](N)[C@@H](O)CC(=O)O; Isovaleryl = CC(C)CC(=O)*",
  "data": [
    {"compound": "CC(C)CC(=O)N[C@H](C(=O)N[C@H](C(=O)N[C@@H](CC(C)C)[C@@H](O)CC(=O)N[C@@H](C)C(=O)N[C@@H](CC(C)C)[C@@H](O)CC(=O)O)C(C)C)C(C)C", "note": "[Pepstatin, (3S,4S)-3-hydroxy-4-[(S)-2-((3S,4S)-3-hydroxy-6-methyl-4-{(S)-3-methyl-2-[(S)-3-methyl-2-(3-methyl-butyrylamino)butyrylamino]butyrylamino}heptanoylamino)-propionylamino]-6-methylheptanoic acid] (Isovaleryl-VV[Sta]A[Sta]-OH)", "values": [
      {"measurement": "cartilage penetration", "setting": "Cartilage penetration", "value": "good"},
      {"measurement": "levels of unbound medicament in microdialysis eluate", "setting": "[1]", "value": "very high levels"},
      {"measurement": "inhibition of cathepsin D (in words)", "setting": "[2]", "value": "nanomolar range"},
      {"measurement": "period of stability in synovial fluid", "setting": "[3]", "value": "at least two weeks"},
      {"measurement": "plasma concentrations after oral administration", "setting": "[4]; 0.5 mg/kg orally", "value": "below the detection limit"},
      {"measurement": "clearance", "setting": "[4]; i.v. 0.2 mg/kg", "value": "> 100", "unit": "% liver blood flow"},
      {"measurement": "distribution volume", "setting": "[4]; i.v. 0.2 mg/kg", "value": "average"},
      {"measurement": "half-life", "setting": "[4]; male, plasma, iv, i.v. 0.2 mg/kg", "value": "~8.4", "unit": "min"},
      {"measurement": "toxicity or genotoxicity", "setting": "[5]", "value": "no measurable toxicity or genotoxicity"},
      {"measurement": "Average joint diameter [mm]", "setting": "[6]; 0 days after injection", "value": 10.08, "unit": "mm"},
      {"measurement": "Average joint diameter [mm]", "setting": "[6]; 1 day after injection", "value": 10.88, "unit": "mm"},
      {"measurement": "Average joint diameter [mm]", "setting": "[6]; 2 days after injection", "value": 10.50, "unit": "mm"},
      {"measurement": "Average joint diameter [mm]", "setting": "[6]; 4 days after injection", "value": 10.12, "unit": "mm"},
      {"measurement": "Average joint diameter [mm]", "setting": "[6]; 7 days after injection", "value": 10.35, "unit": "mm"},
      {"measurement": "Average joint diameter [mm]", "setting": "[6]; 9 days after injection", "value": 10.14, "unit": "mm"},
      {"measurement": "Average joint diameter [mm]", "setting": "[6]; 11 days after injection", "value": 10.37, "unit": "mm"},
      {"measurement": "Average joint diameter [mm]", "setting": "[6]; 13 days after injection", "value": 10.24, "unit": "mm"},
      {"measurement": "Average joint diameter [mm]", "setting": "[6]; 15 days after injection", "value": 10.45, "unit": "mm"},
      {"measurement": "Average joint diameter [mm]", "setting": "[6]; 20 days after injection", "value": 10.18, "unit": "mm"},
      {"measurement": "Average joint diameter [mm]", "setting": "[6]; 27 days after injection", "value": 10.50, "unit": "mm"},
      {"measurement": "systemic exposure", "setting": "[6]; rat, intraarticular administration of a suspension", "value": "very low"},
      {"measurement": "time after administration up to which detectable in the plasma", "setting": "[6]; rat, intraarticular suspension, very low concentration", "value": "up to 28 days"},
      {"measurement": "changes of in-life parameters (body weight, knee swelling, relieving postures)", "setting": "[6]; rat, single intraarticular injection of about 700 μg suspension into both knee joints", "value": "No peculiarities"},
      {"measurement": "efficacy in vivo in arthrosis", "setting": "ACLT tMx arthrosis model", "value": "significant efficacy"},
      {"measurement": "time after intraarticular injection up to which significant levels are detectable in the joint", "setting": "[7]", "value": "up to 14 days"},
      {"measurement": "inhibition of autodigestion of the cartilage", "setting": "[8]", "value": "inhibited virtually completely"},
      {"measurement": "reduction of thermal hyperalgesia", "setting": "[9]; rat, Hargreaves test", "value": "able to reduce the extent of thermal hyperalgesia as a function of the dose"}
    ]},
    {"compound": "C[C@]12C=CC(=O)C=C1CC[C@H]1[C@@H]3C[C@@H](O)[C@](O)(C(=O)CO)[C@@]3(C)C[C@H](O)[C@@]12F", "note": "[TAC, Triamcinolone, reference compound]", "values": [
      {"measurement": "reduction of CAR-induced swelling", "setting": "[9]; rat knee joint, TAC 10 μg/joint", "value": "capable of reducing"}
    ]},
    {"compound": "CC(C)c1nc(CN(C)C(=O)N[C@H](C(=O)N[C@@H](Cc2ccccc2)C[C@H](O)[C@H](Cc2ccccc2)NC(=O)OCc2cncs2)C(C)C)cs1", "note": "[ritonavir, reference compound]", "values": [
      {"measurement": "inhibition of autodigestion of the cartilage", "setting": "[8]", "value": "inhibited virtually completely"}
    ]},
    {"compound": "pertussis toxin", "values": [
      {"measurement": "half life in synovial fluid", "setting": "[10]", "value": "barely two days"}
    ]}
  ]
}
